This is an account of results in patent publication US11845747B2, “Ester and carbonate pyrimidine compounds as JAK kinase inhibitors” (priority 2019, dated 2023).

Data set [1] can be described thus: In vitro skin S9 metabolic stability assay (mouse). Format: in vitro ADME. The settings on record: mouse, s9, pH 7.4. How it is done: Assay 6: In Vitro Skin S9 Metabolic Stability Assay
The objective of this assay was to assess the metabolic stability of compounds in human and mouse skin S9 sub-fraction. Human and mouse skin S9 sub-fractions obtained from Bioreclamation-IVT (Baltimore, Md.) were thawed on ice and diluted into 0.1M potassium phosphate buffer pH 7.4 to yield final incubation protein concentrations of 1.0 mg/mL. Test compounds (10 mM) were diluted into phosphate buffer to yield final incubation concentrations of 0.2 μM and 2.0 μM. Incubations were conducted at 37° C. temperature following addition of 1 mM NADPH and test aliquots were taken at time points 0, 5, 10, 20, 30 and 45 minutes. Each aliquot was crashed into water with 3% formic acid and 1 μM internal standard. The resulting samples were injected onto an LC-MS/MS system for analysis.
For each incubation, the peak area of the analytes in each t0 aliquot was set to 100% and the peak areas from subsequent time point aliquots were converted to percentage of parent compound remaining relative to t0. The percentage of parent compound remaining at each time point was converted to natural log scale and plotted versus time in minutes to determine a disappearance half-life.

The target of data set [2] is T1, JAK3 (Homo sapiens, UniProt P52333).
T1 construct: GST; purchased Life Technologies
T1 sequence (P52333 1-1124): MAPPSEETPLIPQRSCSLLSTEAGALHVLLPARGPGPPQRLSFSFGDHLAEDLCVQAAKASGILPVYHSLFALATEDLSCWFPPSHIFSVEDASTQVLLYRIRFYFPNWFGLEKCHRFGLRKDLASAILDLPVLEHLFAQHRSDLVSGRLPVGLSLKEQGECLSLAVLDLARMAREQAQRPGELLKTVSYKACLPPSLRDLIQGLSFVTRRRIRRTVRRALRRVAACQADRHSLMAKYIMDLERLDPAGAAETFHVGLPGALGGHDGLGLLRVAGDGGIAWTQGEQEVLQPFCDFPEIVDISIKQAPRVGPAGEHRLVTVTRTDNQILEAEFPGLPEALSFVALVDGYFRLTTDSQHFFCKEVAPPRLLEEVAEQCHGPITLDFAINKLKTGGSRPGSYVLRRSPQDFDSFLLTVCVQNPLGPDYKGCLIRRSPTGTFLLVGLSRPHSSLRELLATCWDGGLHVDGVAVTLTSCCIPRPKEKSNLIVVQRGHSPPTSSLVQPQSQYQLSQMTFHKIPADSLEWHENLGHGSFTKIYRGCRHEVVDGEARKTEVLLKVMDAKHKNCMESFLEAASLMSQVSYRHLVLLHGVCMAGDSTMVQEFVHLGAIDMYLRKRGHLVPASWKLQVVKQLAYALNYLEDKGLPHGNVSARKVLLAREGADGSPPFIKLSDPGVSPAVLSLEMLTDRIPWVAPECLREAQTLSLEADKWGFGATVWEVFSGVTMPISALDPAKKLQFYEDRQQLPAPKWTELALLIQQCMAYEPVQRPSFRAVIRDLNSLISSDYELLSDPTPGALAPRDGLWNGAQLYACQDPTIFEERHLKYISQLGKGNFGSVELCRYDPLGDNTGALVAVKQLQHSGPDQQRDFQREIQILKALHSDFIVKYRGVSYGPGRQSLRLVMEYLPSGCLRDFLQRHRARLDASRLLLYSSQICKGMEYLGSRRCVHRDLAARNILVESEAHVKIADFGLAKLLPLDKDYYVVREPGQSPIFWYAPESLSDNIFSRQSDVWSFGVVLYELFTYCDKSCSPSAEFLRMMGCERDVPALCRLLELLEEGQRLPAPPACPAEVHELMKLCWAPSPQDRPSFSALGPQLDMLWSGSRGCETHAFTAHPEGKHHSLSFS
The data set can be described thus: Biochemical LanthaScreen JAK3 kinase assay. The conditions noted are these: Km ATP 1.6 μM; pKi from pIC50 by Cheng-Prusoff; read-out: JAK 3 (pKi) (converted). How it is done:
(§1) Assay 1: Biochemical JAK and Tyk2 Kinase Assays A panel of four LanthaScreen JAK biochemical assays (JAK1, 2, 3 and Tyk2) were carried in a common kinase reaction buffer (50 mM HEPES, pH 7.5, 0.01% Brij-35, 10 mM MgCl2, and 1 mM EGTA). Recombinant GST-tagged JAK enzymes and a GFP-tagged STAT1 peptide substrate were obtained from Life Technologies. Serially or discretely diluted compounds were pre-incubated with each of the four JAK enzymes and the substrate in white 384-well microplates (Corning) at ambient temperature for 1 h. ATP was subsequently added to initiate the kinase reactions in 10 μL total volume, with 1% DMSO. […] Kinase reactions were allowed to proceed for 1 hour at ambient temperature before a 10 μL preparation of EDTA (10 mM final concentration) and Tb-anti-pSTAT1 ([…]) antibody (Life Technologies, 2 nM final concentration) in TR-FRET dilution buffer (Life Technologies) was added. The plates were allowed to incubate at ambient temperature for 1 h before being read on the EnVision reader (Perkin Elmer). Emission ratio signals (520 nm/495 nm) were recorded and utilized to calculate the percent inhibition values based on DMSO and background controls. For dose-response analysis, percent inhibition data were plotted vs. compound concentrations, and IC50 values were determined from a 4-parameter robust fit model with the Prism software (GraphPad Software). Results were expressed as pIC50 (negative logarithm of IC50) and subsequently converted to pKi (negative logarithm of dissociation constant, Ki) using the Cheng-Prusoff equation.
(In general: Time-resolved FRET reads energy transfer from a long-lived donor to a nearby acceptor.)

Data set [3] has as its target T2, JAK1 (Homo sapiens, UniProt P23458).
T2 construct: GST; purchased Life Technologies
The data set can be described thus: Biochemical LanthaScreen JAK1 kinase assay. The settings on record: Km ATP 25 μM; pKi from pIC50 by Cheng-Prusoff; read-out: JAK 1 (pKi) (converted). How it is done: as §1

Data set [4] in a line: in vitro. The format is in vitro ADME. The settings on record: human, microsomes, pH 7.4. How it is done:
Assay 3: Human Liver Microsome Assay The objective of this assay was to assess the metabolic stability of test compounds in an in vitro human liver sub-fraction. Human liver microsomes obtained from Bioreclamation-IVT (Baltimore, Md.) were thawed on ice and diluted into 0.1M potassium phosphate buffer pH 7.4 to yield final incubation protein concentrations of 0.1 mg/mL. Test compounds (10 mM) were diluted into NADPH cofactor to yield final incubation concentrations of 0.1 μM test compound and 1 mM NADPH. Incubations were conducted at 37° C. temperature and test aliquots were taken at time points 0, 5, 8, 15, 30 and 45 minutes. […] The resulting samples were injected onto an LC-MS/MS system for analysis. For each incubation, the peak area of the analytes in each t0 aliquot was set to 100% and the peak areas from subsequent time point aliquots were converted to percentage of parent compound remaining relative to t0. The percentage of parent compound remaining was converted to natural log scale and plotted versus time in minutes. A linear regression analysis was performed for the initial decline of the parent disappearance profile and a formula for the best-fit line determined. The slope of the resultant line was normalized to protein concentration in mg/mL protein or number of cells/mL and CLint was calculated as follows for liver microsomes: CLint(μL·min^−1·mg^−1)=(Slope×1000)/[protein, mg/mL]

A value given as a limit tells only on which side of the number the result lay.

T2 sequence (P23458 whole entry): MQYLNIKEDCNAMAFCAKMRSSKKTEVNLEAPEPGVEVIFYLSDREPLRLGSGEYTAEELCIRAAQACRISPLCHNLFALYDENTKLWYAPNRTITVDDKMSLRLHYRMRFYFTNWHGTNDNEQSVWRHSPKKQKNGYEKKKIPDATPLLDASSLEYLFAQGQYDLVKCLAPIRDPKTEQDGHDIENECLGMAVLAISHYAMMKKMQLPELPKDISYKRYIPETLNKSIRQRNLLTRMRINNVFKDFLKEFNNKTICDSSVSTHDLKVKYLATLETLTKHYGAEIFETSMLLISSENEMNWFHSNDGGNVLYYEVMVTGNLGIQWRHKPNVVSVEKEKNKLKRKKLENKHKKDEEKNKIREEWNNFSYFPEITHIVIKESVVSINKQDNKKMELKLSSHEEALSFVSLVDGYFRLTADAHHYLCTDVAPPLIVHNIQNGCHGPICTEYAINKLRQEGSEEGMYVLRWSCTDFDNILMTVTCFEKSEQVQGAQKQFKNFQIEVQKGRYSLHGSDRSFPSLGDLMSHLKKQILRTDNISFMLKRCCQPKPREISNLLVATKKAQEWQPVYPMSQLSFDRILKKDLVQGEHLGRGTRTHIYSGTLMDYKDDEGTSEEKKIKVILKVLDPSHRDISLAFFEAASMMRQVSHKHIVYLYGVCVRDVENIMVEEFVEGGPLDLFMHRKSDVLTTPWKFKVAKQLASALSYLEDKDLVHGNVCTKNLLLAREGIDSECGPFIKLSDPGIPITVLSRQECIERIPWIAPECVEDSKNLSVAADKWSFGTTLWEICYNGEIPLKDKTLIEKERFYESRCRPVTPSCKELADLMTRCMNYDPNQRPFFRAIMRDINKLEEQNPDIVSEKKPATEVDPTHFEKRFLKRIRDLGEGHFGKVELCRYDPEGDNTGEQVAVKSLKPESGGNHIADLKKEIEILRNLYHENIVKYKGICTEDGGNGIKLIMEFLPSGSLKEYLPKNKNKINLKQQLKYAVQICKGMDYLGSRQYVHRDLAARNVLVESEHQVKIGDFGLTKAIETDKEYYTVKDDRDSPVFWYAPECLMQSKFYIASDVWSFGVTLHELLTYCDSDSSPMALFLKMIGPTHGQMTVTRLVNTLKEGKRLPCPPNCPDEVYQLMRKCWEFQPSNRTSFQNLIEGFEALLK

Usually half-life stands for how long it takes for the measured level to halve. In data set [1], `CCCC(=O)OCc1nc(N(C)[C@@H]2C[C@H]3CCC[C@@H](C2)N3S(=O)(=O)CC)nc(Nc2cc(C)[nH]n2)c1F` [Compound 3, (2-(((1R,3s,5S)-9-(ethylsulfonyl)-9-azabicyclo[3.3.1]nonan-3-yl)(methyl)amino)-5-fluoro-6-((5-methyl-1H-pyrazol-3-yl)amino)pyrimidin-4-yl)methyl butyrate] showed a half-life at 0.2 μM of less than 15 min and a half-life at 2 μM of less than 15 min. The Ki in data set [2] was 1 to 10 nM. Further, the Ki in data set [3] is 0.1 to 1 nM.

For `CCCCCCC(=O)OCc1nc(N(C)[C@@H]2C[C@H]3CCC[C@@H](C2)N3S(=O)(=O)CC)nc(Nc2cc(C)[nH]n2)c1F` [Compound 5, (2-(((1R,3s,5S)-9-(ethylsulfonyl)-9-azabicyclo[3.3.1]nonan-3-yl)(methyl)amino)-5-fluoro-6-((5-methyl-1H-pyrazol-3-yl)amino)pyrimidin-4-yl)methyl heptanoate], the figures for the Ki in data set [2] and in data set [3] were 10 to 100 nM and 1 to 10 nM, respectively.

The compound `CCCCC(=O)OCc1nc(N(C)[C@@H]2C[C@H]3CCC[C@@H](C2)N3S(=O)(=O)CC)nc(Nc2cc(C)[nH]n2)c1F` [Compound 4, (2-(((1R,3s,5S)-9-(ethylsulfonyl)-9-azabicyclo[3.3.1]nonan-3-yl)(methyl)amino)-5-fluoro-6-((5-methyl-1H-pyrazol-3-yl)amino)pyrimidin-4-yl)methyl pentanoate] showed a half-life at 0.2 μM in data set [1] of less than 15 min. The compound also gave a half-life at 2 μM in data set [1] of less than 15 min. Further, the Ki in data set [2] is 1 to 10 nM; in data set [3], 0.1 to 1 nM.

As to `CCS(=O)(=O)N1[C@@H]2CCC[C@H]1C[C@H](N(C)c1nc(COC(=O)OC(C)C)c(F)c(Nc3cc(C)[nH]n3)n1)C2` [Compound 8, (2-(((1R,3s,5S)-9-(ethylsulfonyl)-9-azabicyclo[3.3.1]nonan-3-yl)(methyl)amino)-5-fluoro-6-((5-methyl-1H-pyrazol-3-yl)amino)pyrimidin-4-yl)methyl isopropyl carbonate], the Ki was 1 to 10 nM in data set [2] and 0.1 to 1 nM in data set [3].

As usually defined, the microsomal CLint is a measure of how fast metabolising enzymes remove a compound, apart from limits set by blood flow. Higher therefore signals faster metabolism. In the case of `CCS(=O)(=O)N1[C@@H]2CCC[C@H]1C[C@H](N(C)c1nc(CO)c(F)c(Nc3cc(C)[nH]n3)n1)C2` [Compound M, (2-(((1R,3s,5S)-9-(ethylsulfonyl)-9-azabicyclo[3.3.1]nonan-3-yl)(methyl)amino)-5-fluoro-6-((5-methyl-1H-pyrazol-3-yl)amino)pyrimidin-4-yl)methanol], the Ki was 0.1 to 1 nM in data set [2] and no more than 0.1 nM in data set [3]. This compound also registered a microsomal CLint at 0.1 μM in data set [4] of 132 µL/min/mg.

Consider `CCC(=O)OCc1nc(N(C)[C@@H]2C[C@H]3CCC[C@@H](C2)N3S(=O)(=O)CC)nc(Nc2cc(C)[nH]n2)c1F` [Compound 2, (2-(((1R,3s,5S)-9-(ethylsulfonyl)-9-azabicyclo[3.3.1]nonan-3-yl)(methyl)amino)-5-fluoro-6-((5-methyl-1H-pyrazol-3-yl)amino)pyrimidin-4-yl)methyl propionate], for which, in data set [1], the half-life at 0.2 μM was in the range of 15 to 30 min and the half-life at 2 μM was 15 to 30 min. Further, the Ki in data set [2] was 0.1 to 1 nM. Further, in data set [3], the Ki was 0.1 to 1 nM.

In the case of `CCS(=O)(=O)N1[C@@H]2CCC[C@H]1C[C@H](N(C)c1nc(COC(=O)C3CCOCC3)c(F)c(Nc3cc(C)[nH]n3)n1)C2` [Compound 7, (2-(((1R,3s,5S)-9-(ethylsulfonyl)-9-azabicyclo[3.3.1]nonan-3-yl)(methyl)amino)-5-fluoro-6-((5-methyl-1H-pyrazol-3-yl)amino)pyrimidin-4-yl)methyl tetrahydro-2H-pyran-4-carboxylate], the Ki in data set [2] and in data set [3] was 0.1 to 1 nM in each case. For the same compound, in data set [4], the microsomal CLint at 0.1 μM was greater than 2500 µL/min/mg.

In data set [1], `CCS(=O)(=O)N1[C@@H]2CCC[C@H]1C[C@H](N(C)c1nc(COC(=O)OC3CCCCC3)c(F)c(Nc3cc(C)[nH]n3)n1)C2` [Compound 6, cyclohexyl ((2-(((1R,3s,5S)-9-(ethylsulfonyl)-9-azabicyclo[3.3.1]nonan-3-yl)(methyl)amino)-5-fluoro-6-((5-methyl-1H-pyrazol-3-yl)amino)pyrimidin-4-yl)methyl) carbonate] yielded a half-life at 0.2 μM of less than 15 min and a half-life at 2 μM of less than 15 min. For the same compound, the Ki in data set [2] is 10 to 100 nM. Moreover, in data set [3], the Ki is 1 to 10 nM.

`CCS(=O)(=O)N1[C@@H]2CCC[C@H]1C[C@H](N(C)c1nc(COC(=O)OC3CCOCC3)c(F)c(Nc3cc(C)[nH]n3)n1)C2` [Compound 9, (2-(((1R,3s,5S)-9-(ethylsulfonyl)-9-azabicyclo[3.3.1]nonan-3-yl)(methyl)amino)-5-fluoro-6-((5-methyl-1H-pyrazol-3-yl)amino)pyrimidin-4-yl)methyl (tetrahydro-2H-pyran-4-yl) carbonate]: the Ki was 1 to 10 nM in data set [2] and 0.1 to 1 nM in data set [3]. Moreover, in data set [4], the microsomal CLint at 0.1 μM was greater than 2500 µL/min/mg.

Regarding `CCS(=O)(=O)N1[C@@H]2CCC[C@H]1C[C@H](N(C)c1nc(COC(C)=O)c(F)c(Nc3cc(C)[nH]n3)n1)C2` [Compound 1, (2-(((1R,3s,5S)-9-(ethylsulfonyl)-9-azabicyclo[3.3.1]nonan-3-yl)(methyl)amino)-5-fluoro-6-((5-methyl-1H-pyrazol-3-yl)amino)pyrimidin-4-yl)methyl acetate], in data set [1], the half-life at 0.2 μM is less than 15 min and the half-life at 2 μM fell in the range of 15 to 30 min. For the same compound, the Ki in data set [2] is 0.1 to 1 nM. The Ki in data set [3] is 0.1 to 1 nM.
